From patent US7169785B2, “Methods and compositions of novel triazine compounds” (Reddy US Therapeutics, Inc., priority 2001, dated 2007)
Like-named read-outs stand apart in the source and are kept apart here.

How the values were obtained:
IL-6 [1] = assay: AGE (G-HSA)-induced inflammatory response determined by IL-6 ELISA in HAEC; format: cell-based, human; conditions: Homo sapiens; for activity at 10 µM: 24 h, Compds tested @ 10 uM; for IC50: IL6, unit inferred, read-out: IC50 (AGE stimulation of IL6)
Method: Human aortic endothelial cells (HAEC, Clonetics) were cultured according to manufacturer in growth medium (Clonetics): basal medium containing human epidermal growth factor, hydrocortisone, vascular endothelial growth factor, heparin binding growth factor-B, long R3-insulin-like growth factor-1, ascorbic acid, gentamicin/amphotericin and 5% FBS. These cell were allowed to reach at least 90% confluency before subjected to experimental treatments. […] Tumor necrosis factor α was from R&D Systems.
All treatments, compound-added and controls were carried out in serum free media containing 0.2% albumin. Media from all conditions were collected and used for IL-6 ELISA.
(§1) IL-6 ELISA was carried out using human IL-6 DuoSet ELISA development kit as described by manufacturer (R&D Systems). Mouse anti-human Il-6 was used as the capture antibody (2 ug/ml) and biotinylated goat anti-human IL-6 (200 ng/ml) was used as the detection antibody. Culture media were incubated with capture antibody (in 96 well) for 2 h at room temperature. Wells were washed three times with wash buffer (0.05% tween-20 in phosphate buffered saline (PBS) pH 7.4) followed by incubation with detection antibody for 2 h at room temperature. Following three washes wells were incubated with Streptavidin-HRP for 20 min. Color development was read at 450 nm in a Microplate reader.

IL-6 [2] = assay: TNF-α-induced IL-6 production determined by IL-6 ELISA in HAEC; format: cell-based, human; conditions: Homo sapiens, HAEC, IL6; for activity at 10 µM: 24 h, Compds tested @ 10 uM, read-out: % IL6 production compare to TNF stimulation of IL6 (100%); for IC50: unit inferred, read-out: IC50 (TNF stimulation of IL6)
Method: Human aortic endothelial cells (HAEC, Clonetics) were cultured according to manufacturer in growth medium (Clonetics): basal medium containing human epidermal growth factor, hydrocortisone, vascular endothelial growth factor, heparin binding growth factor-B, long R3-insulin-like growth factor-1, ascorbic acid, gentamicin/amphotericin and 5% FBS. These cell were allowed to reach at least 90% confluency before subjected to experimental treatments. Glycated human serum albumin (G-HSA) was from US Biologicals. Tumor necrosis factor α was from R&D Systems.
[…] All treatments, compound-added and controls were carried out in serum free media containing 0.2% albumin. Media from all conditions were collected and used for IL-6 ELISA.
as §1

[3] = test system: Human aortic smooth muscle cells; assay: Smooth muscle cell proliferation assay (anti-proliferation assay, perlecan); format: cell-based; conditions: Homo sapiens, anti-proliferation assay (perlecan)
[4] = IL6, read-out: % IL6 production compare to AGE stimulation of IL6 (100%)

SMILES | activity at 10 µM (IL-6 [1]; [4]) | activity at 10 µM (IL-6 [2]) | other results
CCN1CCCC1CNc1nc(Nc2ccc(N3CCOCC3)cc2)nc(NC2CCCCCC2)n1 (stereo not drawn) [Compound 27, N^2-cycloheptyl-N^4-[(1-ethyl-2-pyrrolidinyl)methyl]-N^6-[4-(4-morpholinyl)phenyl]-1,3,5-triazine-2,4,6-triamine] | 1% | 3% | 
CCN1CCCC1CNc1nc(Nc2ccc(NC(C)=O)cc2)nc(NC2CCCCCC2)n1 (stereo not drawn) [Compound 29, N-{4-[(4-(cycloheptylamino)-6-{[(1-ethyl-2-pyrrolidinyl)methyl]amino}-1,3,5-triazin-2-yl)-amino]phenyl}acetamide] | 7% | 13% | 
CCN1CCCC1CNc1nc(Nc2cccc(NC(C)=O)c2)nc(NC2CCCCCC2)n1 (stereo not drawn) [Compound 30, N-{3-[(4-(cycloheptylamino)-6-{[(1-ethyl-2-pyrrolidinyl)methyl]amino}-1,3,5-triazin-2-yl)-amino]phenyl}acetamide] | 17% | 9% | 
CCN1CCCC1CNc1nc(Nc2ccccn2)nc(NC2CCCCCC2)n1 (stereo not drawn) [Compound 34, N^2-cycloheptyl-N^4-[(1-ethyl-2-pyrrolidinyl)methyl]-N^6-(2-pyridinyl)-1,3,5-triazine-2,4,6-triamine] | 1% | 3% | 
CCN1CCCC1CNc1nc(NC2CCCCCC2)nc(N(C)c2ccc(OC)cc2)n1 (stereo not drawn) [Compound 42, N^2-cycloheptyl-N^4-[(1-ethyl-2-pyrrolidinyl)methyl]-N^6-(4-methoxyphenyl)-N^6-methyl-1,3,5-triazine-2,4,6-triamine] | 1% | 1% | 
CCN1CCCC1CNc1nc(NCc2ccccc2)nc(Nc2ccc(OC)c(F)c2)n1 (stereo not drawn) [Compound 53, N^2-benzyl-N^4-[(1-ethyl-2-pyrrolidinyl)methyl]-N^6-(3-fluoro-4-methoxyphenyl)-1,3,5-triazine-2,4,6-triamine] | 32% | 1% | 
CCN1CCCC1CNc1nc(Nc2ccc(OC)c(F)c2)nc(N2CCCC2)n1 (stereo not drawn) [Compound 57, N^2-[(1-ethyl-2-pyrrolidinyl)methyl]-N^4-(3-fluoro-4-methoxyphenyl)-6-(1-pyrrolidinyl)-1,3,5-triazine-2,4-diamine] | 25% | 1% | 
CCN1CCCC1CNc1nc(Nc2ccc(OC)c(F)c2)nc(N2CCN(C)CC2)n1 (stereo not drawn) [Compound 62, N^2-[(1-ethyl-2-pyrrolidinyl)methyl]-N^4-(3-fluoro-4-methoxyphenyl)-6-(4-methyl-1-piperazinyl)-1,3,5-triazine-2,4-diamine] | 42% |  | 
CCN1CCCC1CNc1nc(NCC2CCCCC2)nc(Nc2ccc(OC)c(F)c2)n1 (stereo not drawn) [Compound 65, N^2-(cyclohexylmethyl)-N^4-[(1-ethyl-2-pyrrolidinyl)methyl]-N^6-(3-fluoro-4-methoxyphenyl)-1,3,5-triazine-2,4,6-triamine] | 45% | 1% | IC50 (IL-6 [1]): 3.24 µM; IC50 (IL-6 [2]): 6.7 µM
CCN1CCCC1CNc1nc(NCc2ccco2)nc(Nc2ccc(OC)c(F)c2)n1 (stereo not drawn) [Compound 66, N^2-[(1-ethyl-2-pyrrolidinyl)methyl]-N^4-(3-fluoro-4-methoxyphenyl)-N^6-(2-furylmethyl)-1,3,5-triazine-2,4,6-triamine] | 23% | 1% | 
CCN1CCCC1CNc1nc(NCC(F)(F)F)nc(Nc2ccc(OC)c(F)c2)n1 (stereo not drawn) [Compound 67, N^2-[(1-ethyl-2-pyrrolidinyl)methyl]-N^4-(3-fluoro-4-methoxyphenyl)-N^6-(2,2,2-trifluoroethyl)-1,3,5-triazine-2,4,6-triamine] | 39% |  | 
CCN1CCCC1CNc1nc(NCCN(C)C)nc(Nc2ccc(OC)c(F)c2)n1 (stereo not drawn) [Compound 68, N^2-[2-(dimethylamino)ethyl]-N^4-[(1-ethyl-2-pyrrolidinyl)methyl]-N^6-(3-fluoro-4-methoxyphenyl)-1,3,5-triazine-2,4,6-triamine] | 40% | 1% | IC50 (IL-6 [1]): 7.7 µM
CCN1CCCC1CNc1nc(Nc2ccc(OC)c(F)c2)nc(N2CCN(CC(=O)N3CCCC3)CC2)n1 (stereo not drawn) [Compound 69, N^2-[(1-ethyl-2-pyrrolidinyl)methyl]-N^4-(3-fluoro-4-methoxyphenyl)-N^6-{4-[2-oxo-2-(1-pyrrolidinyl)ethyl]-1-piperazinyl}-1,3,5-triazine-2,4-diamine] | 5% | 1% | 
CCN1CCCC1CNc1nc(NCC2CCCN2CC)nc(Nc2ccc(OC)c(F)c2)n1 (stereo not drawn) [Compound 70, N^2,N^4-bis[(1-ethyl-2-pyrrolidinyl)methyl]-N^6-(3-fluoro-4-methoxyphenyl)-1,3,5-triazine-2,4,6-triamine] | 35% | 1% | 
CCN1CCCC1CNc1nc(NCCN2CCCCC2)nc(Nc2ccc(OC)c(F)c2)n1 (stereo not drawn) [Compound 71, N^2-[(1-ethyl-2-pyrrolidinyl)methyl]-N^4-(3-fluoro-4-methoxyphenyl)-N^6-[2-(1-piperidinyl)ethyl]-1,3,5-triazine-2,4,6-triamine] | 29% | 1% | 
CCN1CCCC1CNc1nc(Nc2ccc(OC)c(F)c2)nc(N2CCN(Cc3ccc4c(c3)OCO4)CC2)n1 (stereo not drawn) [Compound 72, N^6-[4-(1,3-benzodioxol-5-ylmethyl)-1-piperazinyl]-N^2-[(1-ethyl-2-pyrrolidinyl)methyl]-N^4-(3-fluoro-4-methoxyphenyl)-1,3,5-triazine-2,4-diamine] | 31% | 5% | 
CCN1CCCC1CNc1nc(Nc2ccc(OC)c(F)c2)nc(N2CCN(c3ccccn3)CC2)n1 (stereo not drawn) [Compound 73, N^2-[(1-ethyl-2-pyrrolidinyl)methyl]-N^4-(3-fluoro-4-methoxyphenyl)-N^6-[4-(2-pyridinyl)-1-piperazinyl]-1,3,5-triazine-2,4-diamine] | 20% | 1% | IC50 (IL-6 [1]): 7.5 µM; IC50 (IL-6 [2]): 8.7 µM
CCN1CCCC1CNc1nc(NCCCN2CCCC2=O)nc(Nc2ccc(OC)c(F)c2)n1 (stereo not drawn) [Compound 74, 1-[3-({4-{[(1-ethyl-2-pyrrolidinyl)methyl]amino}-6-[(3-fluoro-4-methoxyphenyl)amino]-1,3,5-triazin-2-yl}amino)propyl]-2-pyrrolidinone] | 49% |  | 
CCN1CCCC1CNc1nc(NCCCn2ccnc2)nc(Nc2ccc(OC)c(F)c2)n1 (stereo not drawn) [Compound 75, N^2-[(1-ethyl-2-pyrrolidinyl)methyl]-N^4-(3-fluoro-4-methoxyphenyl)-N^6-[3-(1H-imidazol-1-yl)propyl]-1,3,5-triazine-2,4,6-triamine] | 46% | 43% | 
COc1ccc(Nc2nc(NCCCN3CCCC3=O)nc(NC3CCCCCC3)n2)cc1F [Compound 99, 1-[3-({4-(cycloheptylamino)-6-[(3-fluoro-4-methoxyphenyl)amino]-1,3,5-triazin-2-yl}amino)propyl]-2-pyrrolidinone] | 8% | 39% | IC50 (IL-6 [1]): 6.04 µM
COc1ccc(Nc2nc(NCCCn3ccnc3)nc(NC3CCCCCC3)n2)cc1F [Compound 100, N^2-cycloheptyl-N^4-(3-fluoro-4-methoxyphenyl)-N^6-[3-(1H-imidazol-1-yl)propyl]-1,3,5-triazine-2,4,6-triamine] | 1% |  | 
COc1ccc(Nc2nc(NCC3CCCCC3)nc(N(C)C3CCN(C)CC3)n2)cc1Cl [Compound 103, N-(3-Chloro-4-methoxy-phenyl)-N′-cyclohexylmethyl-N″-methyl-N″-(1-methyl-piperidin-4-yl)-[1,3,5]triazine-2,4,6-triamine] |  |  | IC50 ([3]; read-out: Activity (note 1)): > 7 µM; IC50 ([3]; read-out: Avg IC-50): ~7 µM
CCCC(CCC)Nc1nc(Nc2ccc(OC)c(Cl)c2)nc(N(C)C2CCN(C)CC2)n1 [Compound 105, N-(3-Chloro-4-methoxy-phenyl)-N′-methyl-N′-(1-methyl-piperidin-4-yl)-N″-(1-propyl-butyl)-[1,3,5]triazine-2,4,6-triamine] |  |  | IC50 ([3]; read-out: Activity (note 1)): > 7 µM; IC50 ([3]; read-out: Avg IC-50): ~7 µM
COc1ccc(Nc2nc(NC3CCCCCC3)nc(N(C)C3CCN(C)CC3)n2)cc1Cl [Compound 137, N-(3-Chloro-4-methoxy-phenyl)-N′-cycloheptyl-N″-methyl-N″-(1-methyl-piperidin-4-yl)-[1,3,5]triazine-2,4,6-triamine] |  |  | IC50 ([3]; read-out: Activity (note 1)): 3 to 7 µM; IC50 ([3]; read-out: Avg IC-50): 4 to 5 µM
CN1CCC(N(C)c2nc(Nc3ccc4ccccc4c3)nc(NC3CC3)n2)CC1 [Compound 180, N-Cyclopropyl-N′-methyl-N′-(1-methyl-piperidin-4-yl)-N″-naphthalen-2-yl-[1,3,5]triazine-2,4,6-triamine] |  |  | activity at 10 µM (IL-6 [1]; read-out: % IL6 production compare to AGE stimulation of IL6 (100%)): 5%
